In the Kinase Knowledgebase extract (Sharma et al. 2016):

Each compound was assayed against MAPK14 (human) (UniProt Q16539) (assay: Inhibition of MAPK14 Kinase Activity).
Sequence of MAPK14 (human) (Q16539 whole entry, looked up): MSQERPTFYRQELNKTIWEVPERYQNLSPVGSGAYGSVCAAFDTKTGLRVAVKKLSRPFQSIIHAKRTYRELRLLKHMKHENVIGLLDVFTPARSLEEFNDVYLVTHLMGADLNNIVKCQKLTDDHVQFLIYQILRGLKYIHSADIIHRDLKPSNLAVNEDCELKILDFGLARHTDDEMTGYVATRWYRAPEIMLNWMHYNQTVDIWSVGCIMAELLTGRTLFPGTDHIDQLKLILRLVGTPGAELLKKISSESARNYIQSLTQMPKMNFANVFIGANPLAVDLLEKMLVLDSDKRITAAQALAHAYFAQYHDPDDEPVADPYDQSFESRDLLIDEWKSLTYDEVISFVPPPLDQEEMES

Compound | IC50 [µM]
Nc1nc2ccc(-c3nc(-c4c(F)cccc4Cl)[nH]c3-c3ccc(F)cc3F)cc2n1CC1CC1 | ≤ 5
Cc1nc2ccc(-c3nc(-c4c(F)cccc4F)[nH]c3-c3ccccc3)cc2n1CC(C)C | ≤ 5
Cc1nc(-c2ccc(F)cc2F)c(-c2ccc3ncn(CC(C)C)c3c2)[nH]1 | ≤ 5
CC(C)(C)Cn1c(N)nc2ccc(-c3[nH]c(-c4c(F)cccc4Cl)nc3-c3ccc(F)cc3F)cc21 | ≤ 5
CC(C)Cn1c(N)nc2ccc(-c3oc(C(C)(C)C)nc3-c3ccc(F)cc3)cc21 | ≤ 5
CC(C)Cn1c(N)nc2ccc(-c3cn(C(C)C)nc3-c3ccccc3)cc21 | ≤ 5
Cc1onc(-c2ccccc2)c1-c1ccc2nc(N)n(S(=O)(=O)C(C)C)c2c1 | ≤ 5
CC(C)Cn1c(N)nc2ccc(-c3n[nH]nc3-c3ccc(F)cc3)cc21 | ≤ 5
CC(C)(C)Cn1c(N)nc2ccc(-c3[nH]c(-c4c(F)cccc4C(F)(F)F)nc3-c3ccccc3)cc21 | ≤ 5
Nc1nc2ccc(-c3[nH]c(-c4c(F)cccc4F)nc3-c3ccccc3)cc2n1CC1CCCCC1 | ≤ 5
Nc1nc2ccc(-c3nc(-c4c(F)cccc4Cl)[nH]c3-c3ccccc3)cc2n1CC1CC1 | ≤ 5
Nc1nc2ccc(-c3[nH]c(-c4c(F)cccc4F)nc3-c3ccccc3)cc2n1Cc1cccc(F)c1 | ≤ 5
CC(C)Cn1c(N)nc2cc(-c3[nH]c(-c4c(F)cccc4Cl)nc3-c3ccccc3)ccc21 | ≤ 5
CC(C)Cn1c(N)nc2ccc(-c3c(-c4ccccc4)ncn3C)cc21 | ≤ 5
Cn1c(N)nc2ccc(-c3[nH]c(-c4c(F)cccc4F)nc3-c3ccccc3)cc21 | ≤ 5
CCOCn1nc(-c2ccccc2)c(-c2ccc3nc(N)n(CC(C)C)c3c2)n1 | ≤ 5
CC(C)Cn1c(N)nc2ccc(-c3[nH]c(-c4ccccc4C(F)(F)F)nc3-c3ccc(F)cc3)cc21 | ≤ 5
CC(C)Cn1c(N)nc2ccc(-c3c(-c4ccccc4)nc4ccccn34)cc21 | ≤ 5
Nc1nc2ccc(-c3nc(-c4c(F)cccc4C(F)(F)F)[nH]c3-c3ccccc3)cc2n1CC1CC1 | ≤ 5
CC(C)(C)Cn1cnc2ccc(-c3[nH]c(-c4c(F)cccc4F)nc3-c3ccccc3)cc21 | ≤ 5
CC(C)(C)Cn1c(N)nc2ccc(-c3[nH]c(-c4c(F)cccc4F)nc3-c3ccccc3)cc21 | ≤ 5
Nc1nc2ccc(-c3nc(-c4c(Cl)cccc4Cl)[nH]c3-c3ccc(F)cc3F)cc2n1CC1CC1 | ≤ 5
CC(C)Cn1c(N)nc2ccc(-c3[nH]c(C(F)(F)F)nc3-c3ccccc3)cc21 | ≤ 5
Fc1cccc(F)c1-c1nc(-c2ccccc2)c(-c2ccc3ncn(CC4CC4)c3c2)[nH]1 | ≤ 5

Compound | IC50 [µM]
CCCCn1c(N)nc2ccc(-c3[nH]c(-c4c(F)cccc4F)nc3-c3ccccc3)cc21 | ≤ 5
CC(C)Cn1c(N)nc2ccc(-c3c(-c4ccccc4)nc(C4CC4)n3C)cc21 | ≤ 5
CCC(CC)n1c(N)nc2ccc(-c3[nH]c(-c4c(F)cccc4F)nc3-c3ccccc3)cc21 | ≤ 5
CC(C)Cn1c(N)nc2ccc(-c3n[nH]nc3-c3ccc(F)cc3F)cc21 | ≤ 5
CCCn1c(N)nc2ccc(-c3[nH]c(-c4c(F)cccc4F)nc3-c3ccccc3)cc21 | ≤ 5
CC(C)Cn1c(N)nc2ccc(-c3c(-c4ccccc4)nc(C4CCCCC4)n3C)cc21 | ≤ 5
CC(C)(C)Cn1c(N)nc2ccc(-c3nc(-c4c(Cl)cccc4Cl)[nH]c3-c3ccc(F)cc3F)cc21 | ≤ 5
CC(C)Cn1c(N)nc2ccc(-c3nc(-c4c(Cl)cccc4Cl)[nH]c3-c3ccc(F)cc3)cc21 | ≤ 5
CC(C)Cn1c(N)nc2ccc(-c3n[nH]nc3-c3ccccc3)cc21 | ≤ 5
C[C@H](n1c(N)nc2ccc(-c3[nH]c(C(C)(C)C)nc3-c3ccccc3)cc21)C(C)(C)C | ≤ 5
CC(C)Cn1c(N)nc2ccc(-c3[nH]c(C(C)(C)C)nc3-c3ccccc3)cc21 | ≤ 5
Cc1nc2ccc(-c3c(-c4ccccc4)ncn3C3CCCCC3)cc2n1CC(C)C | ≤ 5
CC(C)Cn1c(N)nc2ccc(-c3[nH]c(C4CC4)nc3-c3ccc(F)cc3F)cc21 | ≤ 5
CC(C)n1cnc2ccc(-c3n[nH]nc3-c3ccccc3)cc21 | ≤ 5
CC(C)Cn1c(N)nc2ccc(-c3cn(C)nc3-c3ccccc3)cc21 | ≤ 5
C[C@@H](n1c(N)nc2ccc(-c3[nH]c(C(C)(C)C)nc3-c3ccccc3)cc21)C(C)(C)C | ≤ 5
CC(C)Cn1c(N)nc2ccc(-n3ccnc3-c3ccccc3)cc21 | ≤ 5
CC(C)Cn1c(N)nc2ccc(-c3c(-c4ccccc4)nc(-c4ccc(Cl)cc4)n3C)cc21 | ≤ 5
Nc1nc2ccc(-c3[nH]c(-c4c(F)cccc4F)nc3-c3ccccc3)cc2n1Cc1ccccc1 | ≤ 5
C[C@@H](n1c(N)nc2ccc(-c3[nH]c(-c4c(F)cccc4Cl)nc3-c3ccccc3)cc21)C(C)(C)C | ≤ 5
CC(C)Cn1c(N)nc2ccc(-c3[nH]c(-c4ccccc4C(F)(F)F)nc3-c3ccccc3)cc21 | ≤ 5
CC(C)Cn1c(N)nc2ccc(-c3[nH]c(-c4c(F)cccc4F)nc3-c3ccccc3)cc21 | ≤ 5
CC(C)Cn1c(N)nc2ccc(-c3[nH]c(-c4c(F)cccc4Cl)nc3-c3ccc(F)cc3F)cc21 | ≤ 5
CCn1cnc2ccc(-c3[nH]c(-c4c(F)cccc4F)nc3-c3ccccc3)cc21 | ≤ 5

Compound | IC50 [µM]
CC(C)n1c(N)nc2ccc(-c3n[nH]nc3-c3ccccc3)cc21 | ≤ 5
CC(C)Cn1c(N)nc2ccc(-c3[nH]c(-c4c(F)cc(OCCN5CCCC5)cc4F)nc3-c3ccccc3)cc21 | ≤ 5
Cn1cnc2ccc(-c3[nH]c(-c4c(F)cccc4F)nc3-c3ccccc3)cc21 | ≤ 5
CC(C)Cn1c(N)nc2ccc(-c3cn(C(C)(C)C)nc3-c3ccccc3)cc21 | ≤ 5
C[C@H](n1c(N)nc2ccc(-c3[nH]c(-c4c(F)cccc4F)nc3-c3ccccc3)cc21)C(C)(C)C | ≤ 5
CC(C)Cn1c(N)nc2ccc(-c3c(-c4ccc(F)cc4)nc4n3CCC4)cc21 | ≤ 5
CC(C)(C)Cn1c(N)nc2ccc(-c3[nH]c(C(C)(C)C)nc3-c3ccccc3)cc21 | ≤ 5
CC(C)Cn1c(N)nc2ccc(-c3nc(-c4c(C(F)(F)F)cccc4C(F)(F)F)[nH]c3-c3ccccc3)cc21 | ≤ 5
Nc1nc2ccc(-c3nc(-c4ccc(F)cc4F)[nH]c3-c3c(F)cccc3C(F)(F)F)cc2n1CC1CC1 | ≤ 5
CC(C)(C)Cn1c(N)nc2ccc(-c3[nH]c(C4CC4)nc3-c3ccccc3)cc21 | ≤ 5
CCCn1cnc2ccc(-c3[nH]c(-c4c(F)cccc4F)nc3-c3ccccc3)cc21 | ≤ 5
CC(C)n1cnc2ccc(-c3[nH]c(-c4c(F)cccc4F)nc3-c3ccccc3)cc21 | ≤ 5
CC(C)(C)c1nc(-c2ccc3nc(N)n(CC4CC4)c3c2)c(-c2ccc(F)cc2F)[nH]1 | ≤ 5
CC(C)Cn1c(N)nc2ccc(-c3cn(-c4ccccc4F)nc3-c3ccccc3)cc21 | ≤ 5
CC(C)Cn1c(N)nc2ccc(-c3[nH]c(C(C)(C)C)nc3-c3ccc(F)cc3)cc21 | ≤ 5
CC(C)Cn1c(N)nc2ccc(-c3c[nH]nc3-c3ccc(F)cc3F)cc21 | ≤ 5
CC(C)Cn1cnc2ccc(-c3[nH]c(-c4c(F)cccc4F)nc3-c3ccccc3)cc21 | ≤ 5
CC(C)Cn1cnc2ccc(-c3n[nH]nc3-c3ccccc3)cc21 | ≤ 5
Nc1nc2ccc(-c3[nH]c(-c4c(F)cccc4F)nc3-c3ccccc3)cc2n1CC1CC1 | ≤ 5
CC(C)C(C)n1c(N)nc2ccc(-c3[nH]c(-c4c(F)cccc4F)nc3-c3ccccc3)cc21 (centres undefined) | ≤ 5
CC(C)Cn1c(N)nc2ccc(-c3[nH]c(-c4c(F)cccc4C(F)(F)F)nc3-c3ccccc3)cc21 | ≤ 5
CC(C)n1c(N)nc2ccc(-c3[nH]c(-c4ccccc4)nc3-c3ccccc3)cc21 | ≤ 5
CC(C)Cn1c(N)nc2ccc(-c3[nH]c(-c4c(Cl)cccc4Cl)nc3-c3ccc(F)cc3F)cc21 | ≤ 5
Nc1nc2ccc(-c3nc(-c4c(F)cccc4F)[nH]c3-c3ccc(F)cc3F)cc2n1CC1CC1 | ≤ 5

Compound | IC50 [µM]
CC(C)Cn1c(N)nc2ccc(-c3c[nH]nc3-c3ccccc3)cc21 | ≤ 5
Fc1cccc(F)c1-c1nc(-c2ccccc2)c(-c2ccc3nc[nH]c3c2)[nH]1 | ≤ 5
Nc1nc2ccc(-c3[nH]c(-c4c(F)cccc4F)nc3-c3ccccc3)cc2n1-c1ccccc1 | ≤ 5
CC(C)Cn1c(N)nc2ccc(-c3[nH]c(C4CC4)nc3-c3ccccc3)cc21 | ≤ 5
CC(C)(C)Cn1c(N)nc2ccc(-c3[nH]c(C4CC4)nc3-c3ccc(F)cc3F)cc21 | ≤ 5
CCCCn1cnc2ccc(-c3[nH]c(-c4c(F)cccc4F)nc3-c3ccccc3)cc21 | ≤ 5
CC(C)Cn1c(N)nc2ccc(-c3cn(C(C)(C)C)nc3-c3ccc(F)cc3)cc21 | ≤ 5
CC(C)Cn1c(N)nc2ccc(-c3nc(-c4c(F)cccc4Cl)[nH]c3-c3ccc(F)cc3)cc21 | ≤ 5
CC(C)Cn1c(N)nc2ccc(-c3c(-c4ccccc4)ncn3C3CCCCC3)cc21 | ≤ 5
CCn1c(N)nc2ccc(-c3[nH]c(-c4c(F)cccc4F)nc3-c3ccccc3)cc21 | ≤ 5
Nc1nc2ccc(-c3[nH]c(-c4c(F)cccc4F)nc3-c3ccccc3)cc2n1C1CCCC1 | ≤ 5
CC(C)(C)Cn1c(N)nc2ccc(-c3nc(-c4c(Cl)cccc4Cl)[nH]c3-c3ccccc3)cc21 | ≤ 5
CC(C)Cn1c(N)nc2ccc(-c3[nH]c(-c4c(F)cccc4C(F)(F)F)nc3-c3ccc(F)cc3F)cc21 | ≤ 5
CC(C)Cn1c(N)nc2ccc(-c3[nH]c(-c4c(F)cccc4Cl)nc3-c3ccccc3)cc21 | ≤ 5
Cc1nc(-c2ccccc2)c(-c2ccc3nc(N)n(CC(C)C)c3c2)[nH]1 | ≤ 5
CC(C)Cn1c(N)nc2ccc(-c3cn(C)nc3-c3ccc(F)cc3)cc21 | ≤ 5
CC(C)Cn1c(N)nc2ccc(-c3cn[nH]c3-c3ccc(F)cc3)cc21 | ≤ 5
CC(C)Cn1c(N)nc2ccc(-c3[nH]c(C(C)(C)C)nc3-c3ccc(F)cc3F)cc21 | ≤ 5
CC(C)(C)Cn1c(N)nc2ccc(-c3[nH]c(C(C)(C)C)nc3-c3ccc(F)cc3F)cc21 | ≤ 5
CCOCN1=NC(=C(N1)c2ccc3nc(N)n(CC(C)C)c3c2)c4ccccc4 | ≤ 5
CC(C)Cn1c(N)nc2ccc(-c3cn(C(C)C)nc3-c3ccc(F)cc3)cc21 | ≤ 5
CC(C)Cn1c(N)nc2ccc(-c3[nH]c(C4CC4)nc3-c3ccc(F)cc3)cc21 | ≤ 5
